Reference: PubChem BioAssay (NCI)
Where “and” joins values, the source holds several entries; their conditions need not be identical. Equal values may be shown once.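 How tested: cells in 96-well plates exposed to compound for 48 hours at five concentrations. The concentration for 50% growth inhibition is given as GI50. TGI is the concentration that stops growth completely.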

Key:
Assay in all cases: DTP human tumour cell line panel, 48 h
[1] = tested on: A498 renal
[2] = tested on: SN12C renal
[3] = tested on: NCI-H460 lung
[4] = tested on: MALME-3M melanoma
[5] = tested on: SK-MEL-28 melanoma
[6] = tested on: SF-268 CNS
[7] = tested on: TK-10 renal
[8] = tested on: SNB-75 CNS
[9] = tested on: MDA-MB-435
[10] = tested on: UO-31 renal

Compound	TGI [1] [µM]	TGI [2] [µM]	TGI [3] [µM]	TGI [4] [µM]	TGI [5] [µM]	TGI [6]	TGI [7]	TGI [8]	TGI [9] [µM]	GI50 [7]	GI50 [8] [nM]	TGI [10] [µM]	GI50 [1] [nM]	GI50 [2] [nM]	GI50 [3] [nM]	GI50 [10] [nM]	GI50 [5] [nM]	GI50 [6] [nM]	GI50 [9] [µM]
c1ccc(CCCNc2nnnc3ccccc23)cc1	> 100	> 100	> 100	> 100	> 100	> 100 µM	> 100 µM	> 100000 nM	> 100										
COC1=C(C)C(=O)C2=C(C1=O)C(CO)N1C(C#N)C3CC4C(C1C2N1CCOC41)N3C (stereo not given)						0.94 µM and 0.408 µM and 1.98 µM	4.05 µM and 15.6 µM	141 nM and 226 nM and 338 nM		247 nM and 43.7 nM	66.9								
O=C(c1ccco1)c1ccccc1C(=O)c1ccco1	> 100	> 100	> 100	> 100	> 100	> 100 µM	> 100 µM	> 100000 nM				> 100							
Cc1coc2c1CC1OC1(C)CCC1OC1(C)C2 (stereo not given)	> 100	> 100	> 100		> 100	> 100 µM	> 100 µM	> 100000 nM	> 100			> 100							
Cc1ccc(/C=N/NS(=O)(=O)c2ccccc2)cc1	> 100	> 100	> 100	> 100	> 100	> 100 µM	> 100 µM	> 100000 nM				> 100							
COc1cc([N+](=O)[O-])c(S(=O)(=O)O)cc1N	> 100	> 100	> 100		> 100	> 100 µM	> 100 µM	> 100000 nM	> 100			> 100							
COc1ccc(N2CCN(CN3CCN(c4ccc(OC)cc4)C3)C2)cc1	> 100	> 100	> 100		> 100	> 100 µM	> 100 µM	> 100000 nM	> 100	> 100000 nM	> 100000	> 100	1820	> 100000	> 100000	> 100000	> 100000	> 100000	> 100
CCN1/C(=C/C=C/C=C/c2sc3ccccc3[n+]2CC)Sc2ccccc21	4.12	1.76	1.06		2.75	1.62 µM	3.97 µM	1470 nM	1.31	472 nM	243	4.4	943	327	200	1660	720	431	0.314
COc1cc(-c2nc(-c3nnc(-c4ccc(F)c(Cl)c4)o3)c3ccccn23)cc(OC)c1OC	6.76	> 100				5.48 µM	5.9 µM	3460 nM	> 100	2400 nM	1300	7.64	1550	2420		2200		2030	3.09
